Test results: patent US20200236940A1, “2-(HET)ARYL-SUBSTITUTED FUSED HETEROCYCLE DERIVATIVES AS PESTICIDES” (Bayer Aktiengesellschaft, priority 2017, published 2020)

Tests used:
Format in all cases: in vivo
Spodoptera frugiperda [1] = test: Spodoptera frugiperda drench test (SPODFR D); settings: soil, 336 h, 14 dat, read-out: % efficacy
Experimental: Spodoptera frugiperda—Drench Test (SPODFR D) [table] To produce a suitable active ingredient formulation, 1 part by weight of active ingredient is mixed with the specified amounts of solvent and emulsifier, and the concentrate is diluted with water to the desired concentration, it being necessary to take into account the volume of soil which is drenched. It should be ensured that a concentration of 40 ppm of emulsifier in the soil is not exceeded. To produce further test concentrations, water is used for dilution. Maize plants (Zea mays) in pots of soil are watered with an active ingredient formulation of the desired concentration and infected with caterpillars of the armyworm (Spodoptera frugiperda). After the desired time, the kill in % is determined. 100% means that all caterpillars have been killed; 0% means that none of the caterpillars have been killed.

Spodoptera frugiperda [2] = test: Spodoptera frugiperda spray test, maize leaf discs; settings: application rate 100 g/ha, after 7 days, caterpillars
Experimental: Spodoptera frugiperda—Spray Test [table] To produce a suitable active ingredient formulation, 1 part by weight of active ingredient is dissolved with the specified parts by weight of solvent and made up to the desired concentration with water containing an emulsifier concentration of 1000 ppm. To produce further test concentrations, the formulation is diluted with emulsifier-containing water. Leaf discs of maize (Zea mays) are sprayed with an active ingredient formulation of the desired concentration and, after drying, populated with caterpillars of the armyworm (Spodoptera frugiperda). After 7 days, the efficacy in % is determined. 100% means that all the caterpillars have been killed; 0% means that no caterpillar has been killed.

Phaedon cochleariae [3] = test: Phaedon cochleariae spray test (PHAECO), cabbage leaves; settings: 168 h, 7 dat, read-out: % efficacy
Experimental: Phaedon cochleariae—Spray Test (PHAECO)
Solvent: 14 parts by weight of dimethylformamide
Emulsifier: alkylaryl polyglycol ether
(§1) To produce a suitable active ingredient formulation, 1 part by weight of active ingredient is dissolved with the specified parts by weight of solvent and made up to the desired concentration with water containing an emulsifier concentration of 1000 ppm. To produce further test concentrations, the formulation is diluted with emulsifier-containing water. If the addition of ammonium salts or/and penetrants is required, these are each added in a concentration of 1000 ppm to the formulation solution.
Cabbage leaves (Brassica oleracea) are sprayed with an active ingredient formulation of the desired concentration and populated with larvae of the mustard beetle (Phaedon cochleariae).
After the desired time, the kill in % is determined. 100% means that all the beetle larvae have been killed; 0% means that no beetle larvae have been killed.

Nilaparvata lugens = Nilaparvata lugens spray test (NILALU); settings: 96 h, 500 g of ai/ha, 4 dat, read-out: % efficacy
Experimental: Nilaparvata lugens—Spray Test (NILALU)
as §1
Rice plants (Oryza sativa) are sprayed with an active ingredient formulation of the desired concentration and then populated with larvae of the brown planthopper (Nilaparvata lugens).
[…], the efficacy in % is determined. 100% means that all of the planthoppers have been killed; 0% means that none of the planthoppers have been killed.

Ctenocephalides felis = Ctenocephalides felis oral test; settings: application rate 100 ppm, after 2 days
Experimental: Ctenocephalides felis—Oral Test Solvent: dimethyl sulfoxide To produce a suitable active ingredient formulation, 10 mg of active ingredient are mixed with 0.5 ml of dimethyl sulfoxide. Dilution with citrated cattle blood gives the desired concentration. About 20 unfed adult cat fleas (Ctenocephalides felis) are placed into a chamber which is closed at the top and bottom with gauze. A metal cylinder whose bottom end is closed with parafilm is placed onto the chamber. The cylinder contains the blood/active ingredient formulation, which can be imbibed by the fleas through the parafilm membrane. After 2 days, the kill in % is determined. 100% means that all of the fleas have been killed; 0% means that none of the fleas have been killed.

Meloidogyne incognita = Meloidogyne incognita test; settings: application rate 20 ppm, after 14 days, formation of galls on lettuce
Experimental: Meloidogyne incognita Test Solvent: 125.0 parts by weight of acetone To produce a suitable active ingredient formulation, 1 part by weight of active compound is mixed with the stated amount of solvent and the concentrate is diluted to the desired concentration with water. Vessels are filled with sand, active compound solution, an egg/larvae suspension of the southern root-knot nematode (Meloidogyne incognita) and lettuce seeds. The lettuce seeds germinate and the plants develop. The galls develop on the roots. After 14 days, the nematicidal efficacy in % is determined by the formation of galls. 100% means that no galls were found; 0% means that the number of galls on the treated plants corresponds to the untreated control.

Myzus persicae [4] = test: Myzus persicae spray test (MYZUPE), Chinese cabbage leaf discs; settings: foliar, 120 h
Experimental: Myzus persicae—Spray Test [table] To produce a suitable active ingredient formulation, 1 part by weight of active ingredient is dissolved with the specified parts by weight of solvent and made up to the desired concentration with water containing an emulsifier concentration of 1000 ppm. To produce further test concentrations, the formulation is diluted with emulsifier-containing water. Discs of Chinese cabbage leaves (Brassica pekinensis) infested by all stages of the green peach aphid (Myzus persicae) are sprayed with an active ingredient formulation of the desired concentration. After 5 days, the efficacy in % is determined. 100% means that all the aphids have been killed; 0% means that no aphids have been killed. Myzus persicae—Spray Test (MYZUPE) [table] To produce a suitable active ingredient formulation, 1 part by weight of active ingredient is dissolved with the specified parts by weight of solvent and made up to the desired concentration with water containing an emulsifier concentration of 1000 ppm. To produce further test concentrations, the formulation is diluted with emulsifier-containing water. Discs of Chinese cabbage leaves (Brassica pekinensis) infested by all stages of the green peach aphid (Myzus persicae) are sprayed with an active ingredient formulation of the desired concentration. After the desired period of time, the efficacy in % is determined. 100% means that all the aphids have been killed; 0% means that no aphids have been killed.

Lucilia cuprina = Lucilia cuprina test; settings: after 2 days, L1 larvae
Experimental: Lucilia cuprina Test Solvent: dimethyl sulfoxide To produce a suitable active ingredient formulation, 10 mg of active ingredient are mixed with 0.5 ml of dimethyl sulfoxide, and the concentrate is diluted with water to the desired concentration. About 20 L1 larvae of the Australian sheep blowfly (Lucilia cuprina) are transferred into a test vessel containing minced horsemeat and the active ingredient formulation of the desired concentration. After 2 days, the kill in % is determined. 100% means that all the larvae have been killed; 0% means that no larvae have been killed.

Myzus persicae [5] = test: Myzus persicae oral test; settings: 120 h, application rate 4 ppm, after 5 days, read-out: efficacy
Experimental: Myzus persicae—Oral Test Solvent: 100 parts by weight of acetone To produce a suitable active ingredient formulation, 1 part by weight of active ingredient is dissolved with the stated parts by weight of solvent and made up to the desired concentration with water. 50 μl of the active ingredient formulation are transferred into microtitre plates and made up to a final volume of 200 μl with 150 μl of IPL41 insect medium (33%+15% sugar). Subsequently, the plates are sealed with parafilm, which a mixed population of green peach aphids (Myzus persicae) within a second microtitre plate is able to puncture and imbibe the solution. After 5 days, the efficacy in % is determined. 100% means that all the aphids have been killed; 0% means that no aphids have been killed.

Phaedon cochleariae [6] = test: Phaedon cochleariae spray test, Chinese cabbage leaf discs; settings: foliar, 168 h, application rate 100 g/ha, after 7 days, larvae, read-out: efficacy
Experimental: Phaedon cochleariae—Spray Test
as §1, with “water.” for “water. If the addition of ammonium salts or/and penetrants is required, these are each added in a concentration of 1000 ppm to the formulation solution.”
After 7 days, the efficacy in % is determined. 100% means that all the beetle larvae have been killed; 0% means that no beetle larvae have been killed.

CCS(=O)(=O)c1ccc(-n2ncn(-c3ccc(Cl)cc3)c2=O)nc1-c1nc2cc(C(F)(F)F)nc(C)c2n1C [Example I-001]
100%: efficacy (Spodoptera frugiperda [2]) | Emax at 0.8 ppm (Phaedon cochleariae [3]) | efficacy (kill) (Ctenocephalides felis) | efficacy (kill) (Lucilia cuprina; application rate 20 ppm) | efficacy (kill) (Lucilia cuprina; application rate 100 ppm) | pest or weed control at 100 g/ha (Phaedon cochleariae [6])
60%: Emax at 20 ppm (Spodoptera frugiperda [1]) | Emax at 500 g/ha (Nilaparvata lugens)
90%: nematicidal efficacy (Meloidogyne incognita) | Emax at 20 g/ha (Myzus persicae [4]; MYZUPE, 20 g of ai/ha, 5 dat, read-out: % efficacy) | Emax at 100 g/ha (Myzus persicae [4]; MYZUPE, 100 g of ai/ha, 5 dat, read-out: % efficacy) | pest or weed control at 20 g/ha (Myzus persicae [4]; application rate 20 g/ha, after 5 days, read-out: efficacy) | pest or weed control at 100 g/ha (Myzus persicae [4]; application rate 100 g/ha, after 5 days, read-out: efficacy) | pest or weed control at 4 ppm (Myzus persicae [5])
